Measured values from patent publication US11352317B2, “Rosin-based small molecular weight hydrogelator and its application” (Jiangnan University, priority 2019, dated 2022).

Columns and labels:
[1] = Steady-state shear of comparative aqueous solutions; assay type: physicochemical; conditions: 5 mmol·L^−1 aqueous solution; for viscosity of the system (steady-state shear): high or low shear rates
[2] = Gel sustained-release performance test (in vitro release of embedded Rhodamine B); assay type: physicochemical; conditions: embedded in 20 mmol·L^−1 hydrogel, 37° C.
Method: Rhodamine B was embedded in a hydrogel formed by 20 mmol·L^−1 6-dehydroabietylamide-N,N-dimethyl-hexylamine oxide and in vitro release experiments were carried out in a constant temperature oscillating water bath at 37° C. The absorbance of the release solution was measured by an ultraviolet-visible spectrophotometer to obtain an in vitro release curve. […] It can be seen that the hydrogel formed by 6-dehydroabietylamide-N,N-dimethyl-hexylamine oxide had good sustained-release ability and can be used in the fields of drug sustained release and so on.

[3] = Preparation of O/W type gel emulsion at different oil-water ratios; assay type: physicochemical; conditions: 20 mmol·L^−1 stabilizer, oil phase volume fraction 10% to 90%
Method: An amount of 6-dehydroabietylamide amine oxide was added to a 22 mm (d)×52 mm (h) glass vial with a total volume of 10 mL. After adding a certain amount of deionized water, the vial was heated in a water bath at 50° C. until the 6-dehydroabietylamide amine oxide was completely dissolved to obtain a transparent solution. Different volumes of oil were added to the 6-dehydroabietylamide amine oxide solution (the volume ratios of 6-dehydroabietylamide amine oxide solution to oil were 1:9, 2:8, 3:7, 4:6, 5:5, 6:4, 7:3, 8:2, and 9:1, and total volume was 4 mL), then the mixture was emulsified at 11,000 r/min using an ultraturrax homogenizer (IKA T18 basic, S18N-10G head) for 2 min. The emulsion was allowed to stand and cool at a low temperature to form a white gel emulsion.

[4] = Gel emulsion stability test; assay type: physicochemical; conditions: 20° C.; for Stability: gel emulsion, 0.22% stabilizer
Method: To the 0.22% solution of 6-dehydroabietylamide amine oxide, different volumes of oil were added (the volume ratios of 6-dehydroabietylamide amine oxide solution to oil were 0.2:9.8, 3:7, 5:5,7:3, and 9.9: 0.1, and total volume was 4 mL), and then the mixture was emulsified at 11,000 r/min using an ultraturrax homogenizer (IKA T18 basic, S18N-10G head) for 2 min. The emulsion was allowed to stand and cool at a low temperature to form a white gel emulsion.
The prepared gel emulsion was placed in a 20° C. incubator, and the stability of the gel emulsion was observed. When the concentration of 6-dehydroabietylamide-N,N-dimethyl-hexylamine oxide as stabilizer was 0.22% of the mass of the continuous phase, and the volume fraction of the disperse phase was in the range of 1%-98%, a gel emulsion was formed.

[5] = Cryo-TEM microstructure of the gel system; assay type: physicochemical; conditions: 5 mmol·L^−1 hydrogel
Method: Sample preparation was carried out using an environment controlled low temperature sample preparation device Cryoplunge TM3, and the ambient temperature was fixed at 25° C. The relative humidity in the device cavity was adjusted to over 90%, about 5 μL of the sample was pipetted onto the surface of the micro-grid, and the droplets on the surface of the micro-gate were absorbed by patting the sample with the filter paper on both sides of Cp3 to obtain a very thin liquid film. The sample was then quickly inserted into liquid ethane cooled liquid nitrogen. The frozen sample was transferred to a sample rod cooled with liquid nitrogen and transferred to a transmission electron microscope for observation at an operating voltage of 120 kV. It can be seen from the in situ frozen transmission electron micrograph of a hydrogel sample formed by 5 mmol·L^−1 6-dehydroabietylamide-N,N-dimethyl-hexylamine oxide in FIG. 8 that the microscopic morphology of the hydrogel was a relatively rigid nanofiber having a cross-sectional diameter of about 10 nm and a length of more than 2 μm.
The reason was that the 6-dehydroabietylamide-N,N-dimethyl-hexylamine oxide molecule formed a left-handed helical fiber structure having a diameter of about 10 nm by molecular self-assembly. […]

[6] = Determination of gel behavior (vial inversion); assay type: physicochemical
Method: To 1 mL of deionized water, 6-dehydroabietylamide-N,N-dimethyl-hexylamine oxide was added (concentrations were 4 mmol·L^−1, 10 mmol·L^−1, 15 mmol·L^−1, 20 mmol·L^−1, and 25 mmol·L^−1, respectively). The solution was heated to 40° C. to completely dissolve the 6-dehydroabietylamide-N,N-dimethyl-hexylamine oxide, and then allowed to stand at room temperature, and the solution state was investigated.
It can be seen from the photograph of the appearance of a gel formed by 6-dehydroabietylamide-N,N-dimethyl-hexylamine oxide in FIG. 5 (concentrations from left to right were 4 mmol·L^−1, 10 mmol·L^−1, 15 mmol·L^−1, 20 mmol·L^−1, and 25 mmol·L^−1, respectively) that when the concentration of 6-dehydroabietylamide-N,N-dimethyl-hexylamine oxide was greater than 4 mmol·L^−1, the 6-dehydroabietylamide-N,N-dimethyl-hexylamine oxide can support its own weight without flowing after invertion, indicating the formed gel has excellent viscoelasticity.
In a hydrogel formed by 4 mmol·L^−1 of 6-dehydroabietylamide-N,N-dimethyl-hexylamine oxide, the critical gelling concentration of the 6-dehydroabietylamide-N,N-dimethyl-hexylamine oxide was only 0.176%. Upon conversion, on average, each gelling agent molecule can immobilize 13,889 water molecules, showing extremely high gelling efficiency.

[7] = Determination of surface tension (ring method); assay type: physicochemical; conditions: aqueous, 25° C.
Method: Determination of surface tension. A series of aqueous surfactant solutions having different concentrations were prepared, and the surface tension was measured by a ring method at 25° C., and the surface tension curve was plotted.

[8] = Circular dichroism spectrum of gel; assay type: physicochemical; conditions: 5 mmol·L^−1 gel, 300-180 nm
Method: The measurement was carried out on a circular dichroism spectrometer model MOS-450. The signal was recorded at intervals of 0.1 nm within the wavelength range of 300-180 nm. Gel samples were measured using a 0.1 mm quartz sample cell.

[9] = test system: L929 cells; experiment: 3D cell incubation in hydrogel, FDA/PI staining; assay type: cell-based; conditions: 3D incubation in hydrogel, 24 h, 48 h and 96 h
Method: L929 cells were encapsulated in a 6-dehydroabietylamide-N,N-dimethyl-hexylamine oxide gel under sterile conditions for 3D cell incubation. The cell suspension was added into the 6-dehydroabietylamide-N,N-dimethyl-hexylamine oxide solution with a sol state, and a cell/hydrogel system was formed within 30 s, and further incubated at 37° C. for 15 min. Thereafter, 2 mL of RPMI-1640 medium containing 10% FBS fetal bovine serum and 1% penicillin/streptomycin was gently added to the incubation dish, and the cell/hydrogel system was incubated in a humidified atmosphere of 37° C. and 5% CO2. The medium was replaced after 1 h of incubation and then replaced every 12 h. After incubation for 24 h, 48 h and 96 h, the cell/hydrogel system was stained with FDA/PI and the cells were observed by a confocal laser scanning microscope. […] It can be seen that 6-dehydroabietylamide-N,N-dimethyl-hexylamine oxide hydrogel can be used as a 3D cell incubation scaffold and had potential application in cell therapy and tissue regeneration.

| Compound | gel formation [1] | viscosity of the system (steady-state shear) [1] | release rate of Rhodamine B ([2]; in 40 h) | release rate of Rhodamine B ([2]; within 5 h) | stability of dodecane/hydrogel emulsion [3] | stability of the gel emulsion after placing for one year ([4]; 0.22% of the mass of the continuous phase, disperse phase volume fraction 1%-98%) | Stability ([4]; continuous phase 0.2, disperse phase 9.8) | Stability ([4]; continuous phase 3, disperse phase 7) | Stability ([4]; continuous phase 5, disperse phase 5) | Stability ([4]; continuous phase 7, disperse phase 3) | Stability ([4]; continuous phase 9.9, disperse phase 0.1) | cross-sectional diameter of nanofiber [5] | length of nanofiber [5] | water molecules immobilized per gelling agent molecule (on average) ([6]; at critical gelling concentration, upon conversion) | concentration at which gel supports its own weight without flowing after inversion ([6]; deionized water, dissolved at 40° C., stood at room temperature) | critical gelling concentration ([6]; in water, hydrogel formed by 4 mmol·L^−1, room temperature) | critical micelle concentration [7] | γcmc (surface tension at cmc) [7] | chiral aggregate structure of nanofiber (CD signal) [8] | viability and proliferation of L929 cells in the gel [9] |
| --- | --- | --- | --- | --- | --- | --- | --- | --- | --- | --- | --- | --- | --- | --- | --- | --- | --- | --- | --- | --- |
| CC(C)c1ccc2c(c1)CCC1C(C)(C(=O)NCC[N+](C)(C)[O-])CCCC21C (stereo not shown) [2-dehydroabietylamide-N,N-dimethyl-ethylamine oxide] | neither 2-dehydroabietylamide-N,N-dimethyl-ethylamine oxide nor 3-dehydroabietylamide-N,N-dimethyl-propylamine oxide could form a gel | comparable to the viscosity of water |  |  |  |  |  |  |  |  |  |  |  |  |  |  |  |  |  |  |
| CC(C)c1ccc2c(c1)CCC1C(C)(C(=O)NCCC[N+](C)(C)[O-])CCCC21C (stereo not shown) [3-dehydroabietylamide-N,N-dimethyl-propylamine oxide] | neither 2-dehydroabietylamide-N,N-dimethyl-ethylamine oxide nor 3-dehydroabietylamide-N,N-dimethyl-propylamine oxide could form a gel | comparable to the viscosity of water |  |  |  |  |  |  |  |  |  |  |  |  |  |  |  |  |  |  |
| CC(C)c1ccc2c(c1)CCC1C(C)(C(=O)NCCCCCC[N+](C)(C)[O-])CCCC21C (stereo not shown) [6-dehydroabietylamide-N,N-dimethyl-hexylamine oxide] |  |  | 76% | 28% | no phase separation occurs | did not undergo demulsification | No demulsification occurs after incubation | No demulsification occurs after incubation | No demulsification occurs after incubation | No demulsification occurs after incubation | No demulsification occurs after incubation | about 10 nm | more than 2 μm | 13,889 | greater than 4 mmol·L^−1 | 0.176% | 0.56 mmol/L | 35 mN·m^−1 | left-handed helix | higher viability and proliferative ability |
